# Experimental data: patent US9499509B2, “Dihydrochalcone derivatives and their use as antibiotic agents” (UNIVERSITÉ DU QUÉBEC À CHICOUTIMI, priority 2012, dated 2016)
# Read-outs that look alike come from different tables or passages of the source.
# What was measured:
# Enterococcus faecalis = assay: Antibiotic assay (resazurin, Example 1), Enterococcus faecalis; type: cell-based; conditions: for IC50: read-out: IC50
# Method: (§1) Bacteria Strain. […] The MRSA were obtained as further described below.
# (§2) Antibiotic agents. Cyprofloxacin and erythromycin were provided by Sigma-Aldrich. Gentamicin sulfate and vancomycin hydrochloride were provided by Calbiochem.
# (§3) Five additional strains were tested: Streptococcus pneumoniae, Streptococcus agalactiae, Streptococcus pyogenes, Enterococcus faecalis and Corynebacterium jeikeium.
# Streptococcus pyogenes = assay: Antibiotic assay (resazurin, Example 1), Streptococcus pyogenes; type: cell-based; conditions: Streptococcus pyogenes; for IC50: read-out: IC50; for MIC: read-out: Minimum Inhibitory Concentration (MIC)
# Method: as §1, §2, §3
# S. aureus = assay: Antibiotic assay (resazurin, Example 1), S. aureus strains of Table 3; type: cell-based, Staphylococcus aureus; conditions: for IC50: read-out: IC50; for MIC: read-out: Minimum Inhibitory Concentration (MIC)
# From the text: as §1, §2
# [1] = tested on: methicillin-resistant Staphylococcus aureus (MRSA) strains; assay: Antibiotic assay (resazurin, Example 1), MRSA strains; type: cell-based
# From the text: as §1, §2
# Isolation and identification of methicillin-resistant Staphylococcus aureus (MRSA) strains. From March 2007 to March 2008, 35 screening swabs from nares (n=31), throat (n=3), Groin pus (n=1) were obtained from patients hospitalized at Chicoutimi hospital. Identification of S. aureus was performed using the Slidex Staph-Kit (bioMerieux Vitek, Inc., Hazelwood, Mo.) according to the manufacturer's instructions. Quality control was performed with MRSA strain ATCC 43300 and S. aureus strain ATCC 25923. In addition, S. aureus profile was determined with API Staph test strip with bacterial suspension of saline McFarland of 0.5 (bioMerieux, Durham, N.C.) according to the manufacturer's protocol. API Staph strips were held for 24 h before the results were read. A latex agglutination (SLIDEX) test detecting methicilin resistance in Staphylococci based on the production of low-affinity PBP2a, which is encoded by the mecA gene was performed on all strains. An antibiogram was also performed to confirm the identification of MRSA strains using disk diffusion test.
# Antibiotic susceptibility testing using disk diffusion method. The antimicrobial activity of different classes of antibiotics of the potential MRSA was determined by diffusion method (Kirby-Bauer) as described by NCCLS. The antibiotics tested included: penicillin (10 units), amoxicillin/clavulanic acid (20/10 μg), ciprofloxacin (5 μg), moxifloxacin (5 μg), levofloxacin (5 μg), clindamycin (15 μg), erythromycin (15 μg), cefoxitin (30 μg), linezolid (30 μg), trimethoprim/sulfomethoxazole (1.25/23.75 μg), rifampicin (5 μg), gentamicin (10 μg) and vancomycin (30 μg). The agar medium had pH 7.2 to 7.4 before inoculing potentiel MRSA. The antibiotics were maintained at 8° C. or lower −14° C. according to manufacturer's recommendations. The pure culture was inoculated on a non-selective plate for 18-24 h. Each colony was collected with a wire loop and transfered the growth to a tube containing 4 to 5 mL of a tryptic-soy broth. The inoculum density was standarized with BaSO4 using 0.5 McFarland standard. All strains were incubated at 37° C. until it achieves or exceeds the turbidity of 0.5 McFarland standard. Inoculation of the dried surface (Muller-Hinton agar plate) by streaking the swab over the entire sterile agar surface. This procedure was repeated two more times. After 15 min, the appropriate disk were applied on the surface with a sterile forceps. The inverted plates was placed in a incubator at 37° C./air/16 to 18 h or 24 h for vancomycin. The inhibition zones were measured with a millimetric ruler. Interpretation of zone sizes by references of the manufacturer. Quality control organisms used were ATCC strains number 25923.
# MRSA. Ten (10) strains of MRSA obtained as described above were tested along with an S. aureus wild type (WT) strain (ATCC25923).
# S. epidermidis = assay: Antibiotic assay (resazurin, Example 1), S. epidermidis strains; conditions: Staphylococcus epidermidis
# Streptococcus pneumoniae = assay: Antibiotic assay (resazurin, Example 1), Streptococcus pneumoniae; type: cell-based; conditions: for IC50 / MIC: Streptococcus pneumoniae; for IC50: read-out: IC50; for MIC: read-out: Minimum Inhibitory Concentration (MIC)
# Method: as §1, §2, §3
# Streptococcus agalactiae = assay: Antibiotic assay (resazurin, Example 1), Streptococcus agalactiae; type: cell-based; conditions: for IC50: read-out: IC50
# Method: as §1, §2, §3
# [2] = Staphylococcus aureus, S. aureus 14094
smiles,measurement,setting,value
"O=C(O)c1cn(C2CC2)c2cc(N3CCNCC3)c(F)cc2c1=O [Ciprofloxacin, reference compound]",Minimum Inhibitory Concentration (MIC),Enterococcus faecalis; Ent. Faecalis 14115,(>200) μM
same,IC50,"Enterococcus faecalis; Enterococcus faecalis, Ent. Faecalis 14078",15 ± 2 µM
same,MIC,"Enterococcus faecalis; Enterococcus faecalis, Ent. Faecalis 14078, read-out: Minimum Inhibitory Concentration (MIC)",> 200 µM
same,IC50,"Enterococcus faecalis; Enterococcus faecalis, Ent. Faecalis 14115",> 200 µM
same,activity against Enterococcus faecalis 14115 strain,Enterococcus faecalis; in words,not active
same,IC50,Streptococcus pyogenes; Strep. pyogenes 14149,43 ± 2 µM
same,MIC,Streptococcus pyogenes; Strep. pyogenes 14149,169 µM
same,IC50,Streptococcus pyogenes; Strep. pyogenes 14152,0.6 ± 1 µM
same,MIC,Streptococcus pyogenes; Strep. pyogenes 14152,37.4 µM
same,IC50,S. aureus; S. aureus 14108,< 1.56 µM
same,IC50,S. aureus; S. aureus 14118,< 1.56 µM
same,IC50,S. aureus; S. aureus 14154,< 1.56 µM
same,IC50,S. aureus; [2],< 1.56 µM
same,MIC,S. aureus; [2],87.6 µM
same,MIC,"S. aureus; Staphylococcus aureus, S. aureus 14108",66.8 µM
same,MIC,"S. aureus; Staphylococcus aureus, S. aureus 14118",65.1 µM
same,MIC,"S. aureus; Staphylococcus aureus, S. aureus 14154",25.1 µM
same,Minimum Inhibitory Concentration (MIC),[1]; MRSA 1,(>186) μM
same,Minimum Inhibitory Concentration (MIC),[1]; MRSA 3,(>186) μM
same,Minimum Inhibitory Concentration (MIC),[1]; MRSA 4,(>186) μM
same,Minimum Inhibitory Concentration (MIC),[1]; MRSA 5,(>186) μM
same,Minimum Inhibitory Concentration (MIC),[1]; MRSA 6,(>186) μM
same,Minimum Inhibitory Concentration (MIC),[1]; MRSA 7,(>186) μM
same,Minimum Inhibitory Concentration (MIC),[1]; MRSA 8,(>186) μM
same,Minimum Inhibitory Concentration (MIC),[1]; MRSA 9,(>186) μM
same,Minimum Inhibitory Concentration (MIC),[1]; MRSA 10,(>186) μM
same,IC50,"[1]; Staphylococcus aureus, MRSA, MRSA1, read-out: IC50",102 ± 6 µM
same,IC50,"[1]; Staphylococcus aureus, MRSA, MRSA2, read-out: IC50",156 ± 11 µM
same,MIC,"[1]; Staphylococcus aureus, MRSA, MRSA2, read-out: Minimum Inhibitory Concentration (MIC)",> 186 µM
same,IC50,"[1]; Staphylococcus aureus, MRSA, MRSA3, read-out: IC50",> 186 µM
same,IC50,"[1]; Staphylococcus aureus, MRSA, MRSA4, read-out: IC50",134 ± 7 µM
same,IC50,"[1]; Staphylococcus aureus, MRSA, MRSA5, read-out: IC50",109 ± 4 µM
same,IC50,"[1]; Staphylococcus aureus, MRSA, MRSA6, read-out: IC50",131 ± 9 µM
same,IC50,"[1]; Staphylococcus aureus, MRSA, MRSA7, read-out: IC50",128 ± 9 µM
same,IC50,"[1]; Staphylococcus aureus, MRSA, MRSA8, read-out: IC50",119 ± 9 µM
same,IC50,"[1]; Staphylococcus aureus, MRSA, MRSA9, read-out: IC50",106 ± 11 µM
same,IC50,"[1]; Staphylococcus aureus, MRSA, MRSA10, read-out: IC50",122 ± 16 µM
same,IC50,"[1]; Staphylococcus aureus, MRSA, all MRSA strains, read-out: IC50 values against the MRSA strains",100 to 150 µM
same,IC50,S. epidermidis; S. epidermidis 14069,31 ± 2 µM
same,IC50,S. epidermidis; S. epidermidis 14085,26.3 ± 0.8 µM
same,IC50,S. epidermidis; S. epidermidis 14093,< 1.56 µM
same,IC50,S. epidermidis; S. epidermidis 14134,44 ± 1 µM
same,IC50,S. epidermidis; S. epidermidis 14143,80 ± 7 µM
same,MIC,"S. epidermidis; read-out: Minimum Inhibitory Concentration (MIC), S. epidermidis 14069",> 200 µM
same,MIC,"S. epidermidis; read-out: Minimum Inhibitory Concentration (MIC), S. epidermidis 14085",> 200 µM
same,MIC,"S. epidermidis; read-out: Minimum Inhibitory Concentration (MIC), S. epidermidis 14093",77.1 µM
same,MIC,"S. epidermidis; read-out: Minimum Inhibitory Concentration (MIC), S. epidermidis 14134",> 200 µM
same,MIC,"S. epidermidis; read-out: Minimum Inhibitory Concentration (MIC), S. epidermidis 14143",> 200 µM
same,IC50,Streptococcus pneumoniae; Strep. pneumoniae 14070,> 200 µM
same,MIC,Streptococcus pneumoniae; Strep. pneumoniae 14070,> 200 µM
same,IC50,Streptococcus pneumoniae; Strep. pneumoniae 14112,63 ± 6 µM
same,MIC,Streptococcus pneumoniae; Strep. pneumoniae 14112,200 µM
same,IC50,Streptococcus pneumoniae; Strep. pneumoniae 14138,> 200 µM
same,MIC,Streptococcus pneumoniae; Strep. pneumoniae 14138,> 200 µM
same,IC50,Streptococcus pneumoniae; Strep. pneumoniae 14144,> 200 µM
same,MIC,Streptococcus pneumoniae; Strep. pneumoniae 14144,> 200 µM
same,IC50,Streptococcus pneumoniae; Strep. pneumoniae 14148,56 ± 6 µM
same,MIC,Streptococcus pneumoniae; Strep. pneumoniae 14148,200 µM
same,activity against Streptococcus pneumoniae strain 14144,Streptococcus pneumoniae; in words,not active
same,Minimum Inhibitory Concentration (MIC),Streptococcus agalactiae; Strep. agalactiae 14151,(>200) μM
same,Minimum Inhibitory Concentration (MIC),Streptococcus agalactiae; Strep. agalactiae 14153,(>200) μM
same,IC50,"Streptococcus agalactiae; Streptococcus agalactiae, Strep. agalactiae 14150",138 ± 10 µM
same,MIC,"Streptococcus agalactiae; Streptococcus agalactiae, Strep. agalactiae 14150, read-out: Minimum Inhibitory Concentration (MIC)",> 200 µM
same,IC50,"Streptococcus agalactiae; Streptococcus agalactiae, Strep. agalactiae 14151",> 200 µM
same,IC50,"Streptococcus agalactiae; Streptococcus agalactiae, Strep. agalactiae 14153",190 ± 10 µM
